Results on two compounds are retold here after patent publication US10980725B2, “Cosmetic compositions and method of treating the skin” (Johnson & Johnson Consumer Inc., priority 2017, dated 2021).

Like-named read-outs stand apart in the source and are kept apart here.

For data set [1], the system named is interleukin 8 (IL-8 mRNA). The experiment in a line: Gene expression of inflammatory mediator interleukin 8 in skin explant. Type of data set: cell-based, human. The note with it: 48 h; for IL-8 mRNA expression in skin explant: topical; for IL-8 mRNA expression as compared to Neutrogena RWR (in words): skin explant. The method, then: (§1) Human skin explants were prepared as described by Bellemère et al. (Journal of Investigative Dermatology (2008) 128, 542-548), treated with 4 μl of compound (1) or (2) (Cpd (1) and Cpd (2) in the figure) at 2 concentrations: 10 μM and 100 μM and incubated at 37° C., 5% CO2 in 6-well plates containing 1.5 ml of medium during 48 h. After 48 h, the epidermis of each explant is detached from the dermis and (i) lysed for RNA extraction with Qiagen Rneasy kit, (ii) reverse transcripted using the thermocycler iCycler from Biorad and Applied Biosystems kit and (iii) analyzed for gene expression by performing a qPCR using the CFX96 Biorad Q-PCR system and Power Sybergreen PCR master mix from Applied Biosystems. All steps were performed according to the manufacturer's instructions. […] Compounds (1) and (2), used at doses of 10 μM and 100 μM, elicit retinol-like bioactivity, as shown by the induction of CRABP2 and HB-EGF gene expression.
Test Method 4 Gene Expression of Inflammatory Mediator Interleukin 8 (IL-8 mRNA)
The skin explant used in Test Method 3 was used to measure the expression of the gen for IL-8 mRNA.
As depicted in the Figure below, IL-8 mRNA expression is lower in explant treated with both compounds (1) and (2) as compared to Neutrogena RWR.

The target in data set [2] is T1, RARγ receptors (Homo sapiens, UniProt P13631).
T1 sequence (P13631 185-419 limits assumed): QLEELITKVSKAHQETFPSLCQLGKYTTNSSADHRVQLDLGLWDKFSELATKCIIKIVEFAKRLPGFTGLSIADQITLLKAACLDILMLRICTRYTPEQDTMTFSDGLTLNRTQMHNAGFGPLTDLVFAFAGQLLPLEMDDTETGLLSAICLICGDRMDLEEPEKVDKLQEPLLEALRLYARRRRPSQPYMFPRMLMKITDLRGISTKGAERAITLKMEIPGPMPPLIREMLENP
In words: GenBLAzer RAR gamma cell-based assay, agonist mode (AG) and positive allosteric modulator mode (PAM). The note with it: unit from horizontal axis of FIG. 1. Here is the method:
Test Method 2 RARγ Receptors in Both Agonist Mode (AG) and Positive Allosteric Modulator Mode (PAM)
Dose response activity on RARγ receptors in both agonist mode (AG) and Positive allosteric modulator mode (PAM) was tested using Invitrogen's GenBLAzer® RAR gamma cell-based assay according to the manufacturer's instructions.

Data set [3] deals with CRABP2 (cellular retinoic acid binding protein-II) gene expression. In words: CRABP2 gene expression in human skin explants (qPCR). It is filed as cell-based. The following applies: 48 h; for CRABP2 mRNA expression in skin explant: topical; for CRABP2 gene expression in human skin explants (in words): applied topically, 10 μM and 100 μM. Here is the method: (§2) Test Method 3 CRABP2 (Cellular Retinoic Acid Binding Protein-II) and HBEGF (Heparin-Binding Epidermal Growth Factor-Like Growth Factor) Gene Expression in Human Explants
as §1

Data set [4] concerns HBEGF (heparin-binding epidermal growth factor-like growth factor) gene expression. In words: HBEGF gene expression in human skin explants (qPCR). Type of data set: cell-based. The following applies: 48 h; for HB-EGF gene expression in skin explant: topical; for HBEGF gene expression in human skin explants (in words): applied topically, 10 μM and 100 μM. Here is the method:
as §2, §1

Data set [5] concerns the target T2, Human Retinoic Acid Receptor Gamma (Homo sapiens, UniProt P13631).
T2 sequence (P13631 1-454): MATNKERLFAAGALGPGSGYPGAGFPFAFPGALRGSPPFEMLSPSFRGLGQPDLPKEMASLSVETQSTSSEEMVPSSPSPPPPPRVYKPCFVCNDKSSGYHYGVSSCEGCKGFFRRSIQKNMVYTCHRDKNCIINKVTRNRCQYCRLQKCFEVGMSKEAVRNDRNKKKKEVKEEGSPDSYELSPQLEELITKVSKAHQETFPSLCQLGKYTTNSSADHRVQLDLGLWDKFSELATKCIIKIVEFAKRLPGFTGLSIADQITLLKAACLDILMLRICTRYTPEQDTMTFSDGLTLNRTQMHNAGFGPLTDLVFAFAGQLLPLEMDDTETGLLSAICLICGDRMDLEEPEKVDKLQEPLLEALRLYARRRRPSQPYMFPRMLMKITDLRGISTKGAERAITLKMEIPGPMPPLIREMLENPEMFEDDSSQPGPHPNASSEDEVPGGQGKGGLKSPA
In words: RARγ transactivation cellular assay (luciferase reporter, Indigo Biosciences #IB02001). Type of data set: cell-based. The note with it: for RARγ transactivation (in words): 0.1 μM, 1 μM and 10 μM; for RARγ receptor transactivation values (ratio: RLU of tested material/RLU of control): 24 h incubation. Here is the method:
Test Method 1 RARγ Transactivation Cellular Assay
This assay system uses non-human cells engineered to provide constitutive, high-level expression of the Human Retinoic Acid Receptor Gamma, a ligand-dependent transcription factor. Cells include the luciferase reporter gene functionally linked to a RARγ-responsive promoter. Thus, quantifying changes in luciferase expression in the treated reporter cells provides a sensitive measure of the changes in RARγ activity.
Engineered cells are seeded in 96-well plates and treated with the assessed compounds at 3 concentrations: 0.1 μM, 1 μM and 10 μM. After 24 h incubation, treatment media are discarded and Luciferase detection reagent is added. Light emission from each assay well is quantified using a plate-reading luminometer.

Setting [6] is: 10^−4M in vehicle (PG70/EtOH30).
Where [7] appears, read: 10^−5M in vehicle (PG70/EtOH30).
The mark [8] stands for this setting: agonist mode, read-out: average EC50, dose response activity on RARγ in agonist mode.
Setting [9] is: positive allosteric modulator mode, read-out: average EC50, dose response activity on RARγ in positive allosteric modulator mode.

With `CC(/C=C/C=C(\C)c1ccc2c(c1)C(C)(C)C(C)(C)C2(C)C)=C\C(=O)O` [Compound 1, (2E,4E,6E)-7-(1,1,2,2,3,3-hexamethyl-2,3-dihydro-1H-inden-5-yl)-3-methylocta-2,4,6-trienoic acid], the entries for the “IL-8 mRNA expression in skin explant” value in data set [1] (setting [6]) and in data set [1] (setting [7]) were 410 % control and 422 % control, respectively. Moreover, in data set [1], the “IL-8 mRNA expression as compared to Neutrogena RWR (in words)” value was “lower”. The values for the EC50 in data set [2] (setting [8]) and in data set [2] (setting [9]) were 0.0831 nM and 0.0301 nM, respectively. The “CRABP2 mRNA expression in skin explant” value in data set [3] (setting [6]) is on record as 496 % control; in data set [3] (setting [7]), 256 % control. Moreover, in data set [3], the “CRABP2 gene expression in human skin explants (in words)” value is given as “induced”. Further, the “HB-EGF gene expression in skin explant” value was 513% in data set [4] (setting [6]) and 218% in data set [4] (setting [7]). For the same compound, in data set [4], the “HBEGF gene expression in human skin explants (in words)” value is on record as “induced”. Moreover, the “RARγ transactivation (in words)” value in data set [5] is given as “showed RARγ transactivation”. For the same compound, the results for the “RARγ receptor transactivation values (ratio: RLU of tested material/RLU of control)” value in data set [5] (concentration 0.1 μM), in data set [5] (concentration 1 μM) and in data set [5] (concentration 10 μM) were 10.6988, 8.4578 and 6.506, respectively.
`C=C(c1ccc(C(=O)O)cc1)c1ccc2c(c1)C(C)(C)C(C)(C)C2(C)C` [Compound 2, 4-(1-(1,1,2,2,3,3-hexamethyl-2,3-dihydro-1H-inden-5-yl)vinyl)benzoic acid]: the “IL-8 mRNA expression in skin explant” value in data set [1] (setting [6]) was determined as 690 % control; in data set [1] (setting [7]), 334 % control. In data set [1], the “IL-8 mRNA expression as compared to Neutrogena RWR (in words)” value is “lower”. In addition, the figures for the EC50 in data set [2] (setting [8]) and in data set [2] (setting [9]) were 7.1 ± 0.7 nM and 6.7 ± 2.7 nM, respectively. Moreover, the “CRABP2 mRNA expression in skin explant” value in data set [3] (setting [6]) was 340 % control; in data set [3] (setting [7]) it was 191 % control. For the same compound, the “CRABP2 gene expression in human skin explants (in words)” value in data set [3] is recorded as “induced”. Also, the “HB-EGF gene expression in skin explant” value in data set [4] (setting [6]) is reported as 358%; in data set [4] (setting [7]), 173%. In data set [4], the “HBEGF gene expression in human skin explants (in words)” value is given as “induced”. Moreover, in data set [5], the “RARγ transactivation (in words)” value is reported as “showed RARγ transactivation”. Besides, the “RARγ receptor transactivation values (ratio: RLU of tested material/RLU of control)” value in data set [5] (concentration 0.1 μM) is 5.5663; in data set [5] (concentration 1 μM), 3.253; in data set [5] (concentration 10 μM) it was 6.7229.
